In publication PMC9929232, “On-demand male contraception via acute inhibition of soluble adenylyl cyclase” (Nature Communications, 2023):
“And” between values parts separate entries of the source, which are not always exact repeats. Equal entries are not always repeated.

What was measured:
[1] = molecular target: T1, purified recombinant human sAC protein (Homo sapiens, UniProt Q96PN6); test: In vitro adenylyl cyclase activity assay (two-column method);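 as to cyclase activity (%): 100% equals DMSO vehicle-treated control activity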; assay type: biochemical; parameters: cyclase activity: unit not given here; settings: for cyclase activity (%): Fig. 1c normalized replicates; for cyclase activity: Fig. 1c replicates
T1 construct: human sACt protein was incubated
T1 sequence (Q96PN6 1-469 limits assumed): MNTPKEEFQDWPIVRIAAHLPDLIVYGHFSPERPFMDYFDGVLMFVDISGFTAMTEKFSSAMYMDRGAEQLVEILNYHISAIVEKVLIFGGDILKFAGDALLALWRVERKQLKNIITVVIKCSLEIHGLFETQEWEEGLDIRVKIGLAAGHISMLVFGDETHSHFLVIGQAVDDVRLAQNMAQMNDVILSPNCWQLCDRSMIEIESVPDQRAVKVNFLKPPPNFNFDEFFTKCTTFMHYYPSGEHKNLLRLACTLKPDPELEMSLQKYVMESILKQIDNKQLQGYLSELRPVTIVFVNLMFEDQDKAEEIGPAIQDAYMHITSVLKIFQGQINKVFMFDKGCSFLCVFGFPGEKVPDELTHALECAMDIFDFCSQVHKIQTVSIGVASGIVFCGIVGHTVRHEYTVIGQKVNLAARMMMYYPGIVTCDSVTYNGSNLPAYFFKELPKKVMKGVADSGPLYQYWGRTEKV
Protocol: All in vitro adenylyl cyclase activity assays were performed via the “two-column” method measuring the conversion of [α-^32P] ATP into [^32P] cAMP[54], as previously described. Briefly, human sACt protein was incubated in buffer containing 50 mM Tris-HCl, pH 7.5, 4 mM MgCl2, 2 mM CaCl2, 1 mM ATP, 3 mM DTT, 40 mM NaHCO3 in the presence of the indicated concentrations of different sAC inhibitors or vehicle (1% DMSO).

[2] = molecular target: T2, immobilized human sAC protein (Homo sapiens, UniProt Q96PN6); test: Surface plasmon resonance binding kinetics;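 also: Reference-channel response subtracted from active-channel response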; settings: Fig. 1f
T2 construct: recombinant purified His-tagged sACt protein (50 μg/ml)
T2 sequence (Q96PN6 1-469 limits assumed): T1 sequence (Q96PN6 1-469 limits assumed)
Protocol: Association and dissociation rate constants of sAC inhibitors were obtained with a Biacore 8K instrument (Cytiva) using a parallel kinetics protocol. Series S Sensor NTA chips (Cytiva) were prepared by applying recombinant purified His-tagged sACt protein (50 μg/ml) in PBS-P+ buffer (1 mM KH2PO4, 150 mM NaCl, 6 mM Na2HPO4, 0.05% (w/v) P20 Surfactant). The His-tagged sAC protein was captured via Ni^2+-His-tag chelation and covalently immobilized by amine coupling with a 1:1 mixture of 1-ethyl-3-(3-dimethylaminopropyl) carbodiimide and N-hydroxysuccinimide (active channels). After coupling, remaining reactive groups on the chip’s surface were blocked with 1 M ethanolamine followed by 350 mM EDTA to wash away any free Ni^2+. Following preparation, TBS-P+ running buffer (50 mM Tris, 150 mM NaCl, and 0.05% P20 Surfactant) supplemented with 1% DMSO was flowed over the surface of the chip until a stable baseline was obtained. For each sAC inhibitor, which were dissolved in DMSO and diluted in running buffer, increasing concentrations were injected into parallel channels for 120 s at a flow rate of 50 µl/min followed by running buffer for 600 s to allow for dissociation. All experiments included reference channels; i.e., inhibitor run over parallel channels without immobilized protein. […] Curves were fitted, and kon, KD, and koff values were determined using the Biacore 8K Insight Evaluation Software Version 2.0 (Cytiva) and a 1:1 binding kinetics model.

human sperm = test: Acrosome reaction assay, human sperm, progesterone-evoked; assay type: cell-based
Protocol: Acrosome reaction was induced by incubating mouse sperm with 50 mouse solubilized zonae pellucidae for 15 min at 37 °C. Human sperm were incubated with 10 μM progesterone for 30 min at 37 °C. […] Samples were air-dried on microscope slides and fixed for 30 minutes in 100% ethanol at room temperature (RT). For acrosome staining, mouse and human sperm were incubated for 30 min in the dark with 5 μg/ml PNA-FITC or 5 μg/ml PSA-FITC, respectively, and counterstained with 2 μg/ml DAPI. After curing, slides were analyzed using a Zeiss LSM 880 Laser Scanning Confocal Microscope; images were captured with two photomultiplier and one Gallium Arsenide Phosphide detector using ZEN Imaging software. For each condition, at least 600 cells were analyzed using ImageJ 1.52.

[3] = Pharmacokinetic analysis of TDI-11861 in blood and tissues (LC-MS); assay type: in vivo, mouse; settings: i.p.; including cauda epididymis, excluding testis
Protocol: At defined time points (15 min to 24 hours post-injection), 10 μl tail blood was progressively collected from the same males, mixed with 20 μl 15 mM EDTA, frozen in liquid nitrogen, and stored at −80 °C until analysis. Liver, kidney, eye, testis, caput and cauda epididymis, and seminal vesicle were collected, weighed, and homogenized in a threefold volume of 1:1 EtOH/H2O (v/v). […] Mice anesthetized with ketamine/xylazine were shaved and residual hair was removed with hair removal cream. A small incision was made with a scalpel, a hemostat was used to create a pump-size pocket under the skin, and the pump was inserted with the pump opening facing away from the incision. After the wound was closed, mice were treated with meloxicam for pain relief. For 7 or 42 days post-surgery, tail blood was collected at regular intervals.

[4] = as above; assay type: in vivo, mouse; settings: oral, 1 and 3 hours; caput and cauda epididymis, seminal vesicles, not testis
[5] = cited from earlier work
[6] = cited from earlier work; remark: listed apart in the source
[7] = at 20 µM; cited from earlier work
[8] = concentration (uM) -0.52288 [sic]
[9] = concentration (uM) -1.95424 [sic]
[10] = concentration (uM) -2.43136 [sic]
[11] = concentration (uM) -2.90848 [sic]
[12] = concentration (uM) -3.38561 [sic]
[13] = concentration (uM) -3.86274 [sic]
[14] = concentration (uM) -4.33985 [sic]
[15] = concentration (uM) -4.81696 [sic]
[16] = concentration (uM) printed -1.47712

## Nc1nc(Cl)cc(-c2nn(C(F)F)cc2Cc2ccccc2OCCN2CCOC[C@@H]2CO)n1 [TDI-11861]
[1]; [8]
  cyclase activity (%): 0%
  cyclase activity: 2069 and 1544 and 1561.8 and 2385.2 and 2164.1 and 1653.5
[1]; concentration (uM) -1 [sic]
  cyclase activity (%): 1.344% and 1.8728% and 2.004% and 2.905% and 3.587% and 4.384%
  cyclase activity: 2867.6 and 2750.4 and 2889.4 and 3159.9 and 3272.8 and 3037.2
[1]; [9]
  cyclase activity (%): 19.6796% and 15.3927% and 17.558% and 30.5194% and 31.8303% and 33.3011%
  cyclase activity: 13763.6 and 11459.5 and 13193 and 10525 and 12002.6 and 12163.6
[1]; [10]
  cyclase activity (%): 38.6741% and 36.8021% and 41.7291% and 63.9723% and 46.6554% and 57.8417%
  cyclase activity: 25051.1 and 25250.8 and 29205 and 19447.2 and 16584.9 and 19908.8
[1]; [11]
  cyclase activity (%): 59.9199% and 65.2563% and 61.8852% and 88.985% and 69.2179% and 73.6242%
  cyclase activity: 37676.4 and 43580.1 and 42557.3 and 26118.3 and 23558.8 and 24889.9
[1]; [12]
  cyclase activity (%): 101.82% and 89.3095% and 88.0533% and 91.9223% and 87.6768% and 92.6716%
  cyclase activity: 62575.6 and 59074.4 and 59892.2 and 26901.7 and 29264.3 and 30901.4
[1]; [13]
  cyclase activity (%): 102.032% and 91.5857% and 92.0528% and 108.947% and 93.3751% and 103.72%
  cyclase activity: 62701.3 and 60540.7 and 62541.6 and 31442.4 and 31025.6 and 34388.3
[1]; [14]
  cyclase activity (%): 103.469% and 99.6453% and 98.4201% and 105.132% and 92.0891% and 95.6319%
  cyclase activity: 63555.2 and 65732.4 and 66759.6 and 30424.8 and 30628.1 and 31835.7
[1]; [15]
  cyclase activity (%): 100%
  cyclase activity: 61494 and 65960.9 and 67806.2 and 29056.1 and 33073.3 and 33214.3
[1]; [16]
  cyclase activity (%): 6.461% and 6.308% and 6.301% and 11.7225% and 11.6858% and 13.5507%
  cyclase activity: 5908.5 and 5607.6 and 5735.6 and 5511.7 and 5776.1 and 5930.2
[2]; 4 nM, Time 1.8 s
  SPR sensorgram response: 0.8425
[2]; 4 nM, Time 1.9 s
  SPR sensorgram response: 0.8424
[2]; 4 nM, Time 2 s
  SPR sensorgram response: 0.8404
[2]; 12.3 nM, Time 1.8 s
  SPR sensorgram response: 0.7083
[2]; 12.3 nM, Time 1.9 s
  SPR sensorgram response: 0.7083
[2]; 12.3 nM, Time 2 s
  SPR sensorgram response: 0.7083
[2]; 37 nM, Time 1.8 s
  SPR sensorgram response: 0.4389
[2]; 37 nM, Time 1.9 s
  SPR sensorgram response: 0.4389
[2]; 37 nM, Time 2 s
  SPR sensorgram response: 0.4389
[2]; 111 nM, Time 1.8 s
  SPR sensorgram response: 1.6715
[2]; 111 nM, Time 1.9 s
  SPR sensorgram response: 1.6715
[2]; 111 nM, Time 2 s
  SPR sensorgram response: 1.5453
[2]; 333 nM, Time 1.8 s
  SPR sensorgram response: 3.2073
[2]; 333 nM, Time 1.9 s
  SPR sensorgram response: 3.4899
[2]; 333 nM, Time 2 s
  SPR sensorgram response: 3.8103
Human sperm
  toxicity to sperm (rescue of acrosome response by cAMP/IBMX): not toxic to sperm
Human sperm; Fig. 2h replicates, 10 μM progesterone, 5 μM TDI-10229 or 10 nM TDI-11861
  Acrosome reacted (%), Prog: 11.2728% and 11.1787% and 11.2041% and 9.266% and 10.4762% and 13.6206%
Human sperm; Fig. 2h replicates, 10 μM progesterone, 5 mM db-cAMP/500 μM IBMX, 5 μM TDI-10229 or 10 nM TDI-11861
  Acrosome reacted (%), Prog + db-cAMP/IBMX: 28.3207% and 19.1712% and 18.125% and 29.0658% and 24.3412% and 18.4673%
Human sperm; Fig. 2h replicates, 5 mM db-cAMP/500 μM IBMX, 5 μM TDI-10229 or 10 nM TDI-11861
  Acrosome reacted (%), basal + db-cAMP/IBMX: 16.1667% and 6.667% and 10.5% and 10.6667% and 19.1045% and 11.7728%
Human sperm; Fig. 2h replicates, 180 min capacitating media, 5 μM TDI-10229 or 10 nM TDI-11861
  Acrosome reacted (%), basal: 12.5473% and 10% and 15.2336% and 15.1667% and 10.3704% and 13.6209%
[3]
  levels in tissues versus blood: correlated well with levels in blood
[4]
  levels in tissues versus blood: correlated well with its concentration in blood
[5]
  activity in glutathione trapping assays: no significant activity
[6]
  DEREK analysis for mutagenicity risks: no significant activity
[7]
  cytotoxicity in cell viability assays: no significant activity
